Measured values reported in patent publication US10035790B2, “RORγ modulators” (BRISTOL-MYERS SQUIBB COMPANY, priority 2012, dated 2018).
pIC50: −log10 of the molar value.

The compounds below were run against T1, ligand binding domain of human RORγ (A262-S507) (Homo sapiens, UniProt P51449) (assay: General RORγ SPA binding assay (competition with [3H]25-hydroxycholesterol)). Conditions: RORγ SPA binding assay, inhibition of [3H]25-hydroxycholesterol binding; read-out: IC50.
T1 construct: made in house; host or cells: E. coli
T1 sequence (P51449 262-507): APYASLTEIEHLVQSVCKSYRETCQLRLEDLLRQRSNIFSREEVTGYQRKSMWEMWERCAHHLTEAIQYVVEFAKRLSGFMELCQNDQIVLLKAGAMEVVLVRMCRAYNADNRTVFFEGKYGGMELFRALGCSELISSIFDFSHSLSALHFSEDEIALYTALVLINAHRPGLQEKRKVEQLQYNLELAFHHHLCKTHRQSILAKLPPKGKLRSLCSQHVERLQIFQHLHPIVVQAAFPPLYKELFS
Summary of the method: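 N-terminally His-tagged protein was expressed in E. coli and nickel-purified. Then 50 nM protein was preincubated with compound for 15 min at room temperature in PBS with 0.5% fatty acid free BSA, followed by radioligand for 15 min and copper His-tag SPA beads for 30 min. IC50 came from percent inhibition of binding.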
`Cc1cc(C)cc(CNC(=O)c2cnc(C)nc2C2CCN(C(=O)C3(c4ccccc4)CC3)CC2)c1` [Compound A32, N-(3,5-dimethylbenzyl)-2-methyl-4-(1-(1-phenylcyclopropanecarbonyl)piperidin-4-yl)pyrimidine-5-carboxamide] showed a pIC50 of 5.77. Compound `CN(C)c1ncc(C(C)(O)COc2ccnc(C(F)(F)F)n2)c(C2CCN(C(=O)Nc3c(F)cccc3F)CC2)n1` (stereo not drawn) [Compound D38, N-(2,6-Difluorophenyl)-4-[2-(dimethylamino)-5-(1-hydroxy-1-methyl-2-{[2-(trifluoromethyl)pyrimidin-4-yl]oxy}ethyl)pyrimidin-4-yl]piperidine-1-carboxamide] has a pIC50 of 7.59. For `C/C(=N/Oc1cccc(C(F)(F)F)c1)c1cnc(C)nc1C1CCN(C(=O)Cc2c(F)cccc2F)CC1` [Compound B4, (Z)-2-(2,6-Difluorophenyl)-1-(4-(2-methyl-5-(1-(3-(trifluoromethyl)phenoxyimino)ethyl)pyrimidin-4-yl)piperidin-1-yl)ethanone], the pIC50 was 6.86. `CN(C)CCNc1ncc(C(=O)NCc2cccc(Cl)c2)c(C2CCN(C(=O)Cc3c(F)cccc3F)CC2)n1` [Compound A97, N-(3-chlorobenzyl)-4-(1-(2-(2,6-difluorophenyl)acetyl)piperidin-4-yl)-2-((2-(dimethylamino)ethyl)amino) pyrimidine-5-carboxamide] was tested, and the pIC50 was 6.54. With `Cc1nc(N)nc(C2CCN(C(=O)Oc3cccc(F)c3)CC2)c1-c1nnc(-c2ccnc(C(F)(F)F)n2)o1` [Compound C55, 3-Fluorophenyl 4-(2-amino-6-methyl-5-{5-[2-(trifluoromethyl)pyrimidin-4-yl]-1,3,4-oxadiazol-2-yl}pyrimidin-4-yl)piperidine-1-carboxylate] the pIC50 was 7.72. `C/C(=N\Oc1cc(F)cc(Cl)c1)c1cnc(C)nc1C1CCN(C(=O)Cc2c(F)cccc2F)CC1` [Compound B12, (E)-1-(4-(5-(1-((3-chloro-5-fluorophenoxy)imino)ethyl)-2-methylpyrimidin-4-yl)piperidin-1-yl)-2-(2,6-difluorophenyl)ethanone] showed a pIC50 of 8.66. `Cc1ncc(C(F)(F)CNc2nccc(C(F)(F)F)n2)c(C2CCN(C(=O)Cc3c(F)cccc3F)CC2)n1` [Compound N21, N-[2-(4-{1-[(2,6-Difluorophenyl)acetyl]piperidin-4-yl}-2-methylpyrimidin-5-yl)-2,2-difluoroethyl]-4-(trifluoromethyl)pyrimidin-2-amine] was tested, and the pIC50 was 7.85. `CC(=O)Nc1ncc(C(C)(O)COc2cccc(C(F)(F)F)n2)c(C2CCN(C(=O)Nc3c(F)cccc3F)CC2)n1` (stereo not drawn) [Compound D32, 4-[2-(Acetylamino)-5-(1-hydroxy-1-methyl-2-{[6-(trifluoromethyl)pyridin-2-yl]oxy}ethyl)pyrimidin-4-yl]-N-(2,6-difluorophenyl)piperidine-1-carboxamide] showed a pIC50 of 7.86. In the case of `Cc1cc(C)cc(COC(C)(COCC(O)CO)c2cnc(C)nc2C2CCN(C(=O)Cc3c(F)cccc3F)CC2)c1` (stereo not drawn) [Compound E3, 2-(2,6-difluorophenyl)-1-(4-(5-(1-(2,3-dihydroxypropoxy)-2-((3,5-dimethylbenzyl)oxy)propan-2-yl)-2-methylpyrimidin-4-yl)piperidin-1-yl)ethanone], the pIC50 was 8.21. `Cc1nc(N)nc(C2CCN(C(=O)Nc3c(F)cccc3F)CC2)c1-c1cnc(-c2ccnc(C(F)(F)F)n2)o1` [Compound C70, 4-(2-Amino-6-methyl-5-{2-[2-(trifluoromethyl)pyrimidin-4-yl]-1,3-oxazol-5-yl}pyrimidin-4-yl)-N-(2,6-difluorophenyl)piperidine-1-carboxamide] showed a pIC50 of 6.97. `Cc1nc(C)c(-c2nnc(-c3ccnc(C(F)(F)F)n3)o2)c(C2CCN(C(=S)Nc3c(F)cccc3F)CC2)n1` [Compound C46, N-(2,6-Difluorophenyl)-4-(2,6-dimethyl-5-{5-[2-(trifluoromethyl)pyrimidin-4-yl]-1,3,4-oxadiazol-2-yl}pyrimidin-4-yl)piperidine-1-carbothioamide] gave a pIC50 of 6.91. With `CCNc1ncc(C(C)(O)COc2ccnc(C(F)(F)F)n2)c(C2CCN(C(=O)Nc3c(F)cccc3F)CC2)n1` (stereo not drawn) [Compound D35, N-(2,6-Difluorophenyl)-4-[2-(ethylamino)-5-(1-hydroxy-1-methyl-2-{[2-(trifluoromethyl)pyrimidin-4-yl]oxy}ethyl)pyrimidin-4-yl]piperidine-1-carboxamide] the pIC50 was 7.83. In the case of `Cc1ncc(C(=O)NCc2ccnc(C(F)(F)F)c2)c(C2CCN(C(=O)Cc3c(F)cccc3F)CC2)n1` [Compound A47, 4-(1-(2-(2,6-difluorophenyl)acetyl)piperidin-4-yl)-2-methyl-N-((2-(triflnoromethyl)pyridin-4-yl)methyl)pyrimidine-5-carboxamide], the pIC50 was 8.20. `C/C(=N\Oc1cccc(C)c1C)c1cnc(C)nc1C1CCN(C(=O)Cc2c(F)cccc2F)CC1` [Compound B22, (E)-2-(2,6-difluorophenyl)-1-(4-(5-(1-((2,3-dimethylphenoxy)imino)ethyl)-2-methylpyrimidin-4-yl)piperidin-1-yl)ethanone] showed a pIC50 of 7.08. `CSc1ncc(/C(C)=N/Oc2ccnc(Cl)c2)c(C2CCN(C(=O)Nc3c(F)cccc3F)CC2)n1` [Compound B58, 4-[5-{(1E)-N-[(2-Chloropyridin-4-yl)oxy]ethanimidoyl}-2-(methylthio)pyrimidin-4-yl]-N-(2,6-difluorophenyl)piperidine-1-carboxamide] was tested, and the pIC50 was 5.39. In the case of `Cc1ncc(C(C)(C)OCc2cccc(Cl)n2)c(C2CCN(C(=O)Cc3c(F)cccc3F)CC2)n1` [Compound E7, 1-(4-(5-(2-((6-chloropyridin-2-yl)methoxy)propan-2-yl)-2-methylpyrimidin-4-yl)piperidin-1-yl)-2-(2,6-difluorophenyl)ethanone], the pIC50 was 7.20. `Cc1nc(C)c(C(=O)NCc2cccc(C(F)(F)F)n2)c(C2CCN(C(=O)Cc3c(F)cccc3F)CC2)n1` [Compound A82, 4-(1-(2-(2,6-difluorophenyl)acetyl)piperidin-4-yl)-2,6-dimethyl-N-((6-(trifluoromethyl)pyridin-2-yl)methyl)pyrimidine-5-carboxamide] was tested, and the pIC50 was 8.21. Compound `Cc1cccc(CNC(=O)c2cnc(C)nc2C2CCN(C(=O)Cc3c(F)cccc3F)CC2)c1` [Compound A60, 4-(1-(2-(2,6-difluorophenyl)acetyl)piperidin-4-yl)-2-methyl-N-(3-methylbenzyl)pyrimidine-5-carboxamide] has a pIC50 of 7.46. `C/C(=N\Oc1cccc(C(F)(F)F)n1)c1cnc(C)nc1C1CCN(C(=O)Nc2c(F)cccc2F)CC1` [Compound B38, N-(2,6-Difluorophenyl)-4-{2-methyl-5-[(1E)-N-{[6-(trifluoromethyl)pyridin-2-yl]oxy}ethanimidoyl]pyrimidin-4-yl}piperidine-1-carboxamide] was tested, and the pIC50 was 6.77. `C/C(=N/Oc1cccc(OC(F)(F)F)c1)c1cnc(C)nc1C1CCN(C(=O)Cc2c(F)cccc2F)CC1` [Compound B8, (Z)-2-(2,6-difluorophenyl)-1-(4-(2-methyl-5-(1-((3-(trifluoromethoxy)phenoxy)imino)ethyl)pyrimidin-4-yl)piperidin-1-yl)ethanone] was tested, and the pIC50 was 5.82. `CSc1ncc(/C(C)=N/Oc2cccc(C(F)(F)F)c2)c(C2CCN(C(=O)Nc3c(F)cccc3F)CC2)n1` [Compound B50, N-(2,6-Difluorophenyl)-4-{2-(methylthio)-5-[(1E)-N-{[3-(trifluoromethyl)phenyl]oxy}ethanimidoyl]pyrimidin-4-yl}piperidine-1-carboxamide] gave a pIC50 of 6.35. Compound `O=C(NCc1ccc(Cl)c(Cl)c1)c1cncnc1C1CCN(C(=O)Cc2c(Cl)cccc2Cl)CC1` [Compound A65, N-(3,4-dichlorobenzyl)-4-(1-(2-(2,6-dichlorophenyl)acetyl)piperidin-4-yl)pyrimidine-5-carboxamide] has a pIC50 of 7.16. For `Cc1ncc(C(=O)NOc2cc(F)cc(Cl)c2)c(C2CCN(C(=O)Cc3c(F)cccc3F)CC2)n1` [Compound H6, N-(3-chloro-5-fluorophenoxy)-4-(1-(2-(2,6-difluorophenyl)acetyl)piperidin-4-yl)-2-methylpyrimidine-5-carboxamide], the pIC50 was 5.79. Compound `C/C(=N/Oc1cc(Cl)nc(C(F)(F)F)c1)c1cnc(C)nc1C1CCN(C(=O)Nc2c(F)cccc2F)CC1` [Compound B41, 4-{5-[(1Z)—N-{[2-chloro-6-(trifluoromethyl)pyridin-4-yl]oxy}ethanimidoyl]-2-methylpyrimidin-4-yl}-N-(2,6-difluorophenyl)piperidine-1-carboxamide] has a pIC50 of 7.90. In the case of `Cc1nc(C)c(C(O)COc2ccnc(C(F)(F)F)n2)c(C2CCN(C(=O)Nc3c(F)cccc3F)CC2)n1` (stereo not drawn) [Compound M9, N-(2,6-Difluorophenyl)-4-[5-(1-hydroxy-2-{[2-(trifluoromethyl)pyrimidin-4-yl]oxy}ethyl)-2,6-dimethylpyrimidin-4-yl]piperidine-1-carboxamide], the pIC50 was 8.70. `Cc1nc(C)c(-c2nnc(-c3ccnc(C(F)(F)F)n3)o2)c(C2CCN(C(=O)C(C)c3c(F)cccc3F)CC2)n1` (stereo not drawn) [Compound C26, 2-(2,6-difluorophenyl)-1-(4-(2,6-dimethyl-5-(5-(2-(trifluoromethyl)pyrimidin-4-yl)-1,3,4-oxadiazol-2-yl)pyrimidin-4-yl)piperidin-1-yl)propan-1-one] was tested, and the pIC50 was 6.63. `COc1cccc(O/N=C(\C)c2cnc(C)nc2C2CCN(C(=O)Cc3c(F)cccc3F)CC2)c1` [Compound B21, (E)-2-(2,6-difluorophenyl)-1-(4-(5-(1-((3-methoxyphenoxy)imino)ethyl)-2-methylpyrimidin-4-yl)piperidin-1-yl)ethanone] showed a pIC50 of 7.63.
